According to US11596620B2, “Formulations with reduced oxidation” (Genentech, Inc., priority 2013, dated 2023):

How the values were obtained:
mAb1 [1] = assay: Ambient light exposure of 50 mg/mL mAb1 formulations containing L-Trp (Amplex assay, RP-HPLC); assay type: physicochemical, human
From the text: While confirming the photosensitivity of free L-Trp under ICH light conditions, the effect of ambient light that was typically seen in laboratories was studied. Measurements using a DLM1 digital light meter in various labs indicated an average of 300 lux on a lab benchtop (with white fluorescent lighting), an average of 3000 lux in a laminar flow hood (with white fluorescent lighting) and about 10000 lux for a windowsill exposed to southeast sunlight. […] Peroxide production increased with both luminosity (300, 3000, and 10000 lux) and time (1, 3, and 7 days). […] These levels of light exposure and time were determined to be pharmaceutically relevant for drug substance handling under ambient light and temperature before fill/finish operations and potentially while inspecting drug product vials.

mAb1 [2] = assay: Light stress of mAb1 formulation (eight hours at 250 W/m^2), papain digest RP-HPLC; assay type: physicochemical, human; conditions: mAb1 5 mg/mL, eight hours of light at 250 W/m^2
Procedure: L-tryptophan (L-Trp), an antioxidant used in protein formulations, has been recently shown to be photosensitive (Igarashi et al., Anal Sci 23(8):943-8 (2007)) and to have the ability to produce H2O2 upon light exposure. […] Control vials were wrapped in aluminum foil and treated similarly. After light exposure, solutions were prepared for analysis by reverse-phase HPLC. […] Following incubation, 900 μL of the solution was combined with 100 μL of 1 M dithiothreitol (DTT) and incubated for another thirty minutes at 37° C. Samples were then run on an Agilent, Inc. 1100/1200 HPLC system (Santa Clara, Calif.) equipped with UV detection at 280 nm in conjunction with a Varian, Inc. Pursuit 3 μm, 2 mm ID×250 mm diphenyl column (Palo Alto, Calif.). Mobile Phase A was 0.1% TFA in water. Mobile Phase B was 0.1% TFA in acetonitrile. The mobile phase gradient increased linearly from 34% B at 0 minutes to 43% B at 50.0 minutes, then to 95% B at 50.1 minutes. The gradient remained at 95% B until 60.1 minutes, and then decreased linearly from 95% B to 34% B between 60.1 and 60.2 minutes. The gradient remained at 34% B until the end of the cycle at 80.2 minutes. The column temperature was 65° C., total flow rate was 0.2 mL/min, and injection volume of each sample was 6 μL. Chromatograms were then integrated for quantification of oxidation.

mAb1 [3] = assay: mAb1 light stress study (16 hours at 250 W/m^2), RP-HPLC; assay type: physicochemical, human; conditions: 16 hours of light at 250 W/m^2
Procedure: The fragments were reduced with DTT, and then separated and identified via Liquid Chromatography-Mass Spectrometry (LC-MS). […] Comparison of area integrated under the oxidized and native peaks was used to quantify HC Fab and Fc oxidation. […] By using the papain digest RP-HPLC method in the present study it was possible to investigate Trp residue oxidation by quantifying HC Fab oxidation, and Met residue oxidation by quantifying HC Fc oxidation.
Antioxidants were added at 1 mM. Glass vials containing these formulations were exposed to 250 W/m^2 light in an Atlas SunTest CPS+ Xenon Test Instrument (Chicago, Ill.). Control vials were wrapped in aluminum foil and treated similarly. After light exposure, solutions were prepared for analysis by reverse-phase HPLC as described above.

[4] = Photosensitivity screening assay (H2O2 by Amplex Ultra Red after light exposure); assay type: physicochemical; conditions: 1 mM in 20 mM histidine acetate pH 5.5, four hours of light at 250 W/m^2
Procedure: As a screening tool, antioxidant candidates were exposed to light for four hours at 250 W/m^2 and the resulting H2O2 formation was quantified by the Amplexassay. Specifically, antioxidants were prepared to 1 mM in 20 mM histidine acetate buffer at pH 5.5. The 1 mM antioxidant solutions were aliquoted into glass vials (2 mL/glass vial) and exposed to four hours of light at 250 W/m^2 in an Atlas SunTest CPS+ Xenon Test Instrument (Chicago, Ill.). Total UV dose was 90 watt-hours/square meter and total visible dose was 0.22 million lux hours over the 4-hour period. Control vials were wrapped in aluminum foil and treated similarly. The amount of hydrogen peroxide generated after exposure to light was measured using the Amplex® Ultra Red Assay (Invitrogen, Carlsbad, Calif.) following the manufacturer's recommended procedure. On addition of horseradish peroxidase (HRP), the dye reacted 1:1 stoichiometrically with H2O2, resulting in the production of fluorescent oxidation product resorufin. In this study, fluorescence readings were obtained using a Spectra Max M2 Micro-plate Reader (Molecular Devices, Sunnyvale, Calif.) with excitation and emission set at 560 nm and 590 nm, respectively. Final H2O2 concentrations were determined using a standard curve ranging from 0 μm to 20 μm.

[5] = H2O2 generation by free L-Trp upon light exposure, Amplex assay; assay type: physicochemical
Procedure: It was previously reported that L-Trp produced H2O2 via superoxide ion and in a sub-stoichiometric fashion while antibodies under similar conditions were producing catalytic amounts (Wentworth et al., Science 293(5536):1806-11 (2001); McCormick et al., Journal of the American Chemical Society 100:312-313 (1978)). To test the susceptibility of free L-Trp under pharmaceutically relevant conditions, such as under both ICH and ambient light conditions, formulations comprising 0.32 mM to 7.5 mM of L-Trp were exposed for 3 hours at 250 W/m^2 UV light and about 150 k lux visible light. Samples were taken and analyzed immediately via the Amplex assay to detect the amount of H2O2 generated under these conditions. […] When L-Trp was incubated with a combination of 50 mM NaN3 and 150 U superoxide dismutase (SOD) or SOD alone, significant amounts of H2O2 were still detected in the samples not containing NaN3.

N[C@@H](Cc1c[nH]c2ccccc12)C(=O)O [L-Trp, L-tryptophan]
Heavy chain Fab oxidation (W53) under ambient light, in words (mAb1 [1]; 50 mg/mL mAb1 with L-Trp, increasing luminosity): increased heavy chain Fab oxidation
% Fc oxidation in mAb1 (mAb1 [1]; 300 lux, 50 mg/mL mAb1 with L-Trp): 5%
% Fc oxidation in mAb1 (mAb1 [1]; 10000 lux, 50 mg/mL mAb1 with L-Trp): 40%
Hydrogen peroxide production under ambient light (mAb1 [1]; L-Trp in formulation buffers containing 50 mg/mL mAb1, 300, 3000, 10000 lux, 1, 3, 7 days): micromolar range
Fc oxidation (mAb1 [2]; 1 mM L-Trp, reference material and foil control about 8%): over 20%
Fab oxidation (mAb1 [2]; no excipient or 1 mM L-Trp, reference material and foil control about 2%): ~9%
Fc oxidation as multiple of the control level (mAb1 [3]; 1 mM L-Trp): 7 times
Fab oxidation increase over the control level (mAb1 Ref Mat) (mAb1 [3]; excipient 1 mM or none): over 11 fold
(H2O2 produced by Compound)/(H2O2 produced by L-Trp) [4]: 1
H2O2 generated upon light exposure ([5]; 0.32 mM to 7.5 mM L-Trp, 3 hours at 250 W/m^2 UV light and about 150 k lux visible light): large quantity of H2O2
H2O2 generation in the presence of 50 mM sodium azide ([5]; 3 hours at 250 W/m^2 UV light, 50 mM sodium azide): reduced greatly
